Molecules are shown by their SMILES. Where only a bound is given, the exact number is not on record here.
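Note: inhibition of SARM1 SAM-TIR NADase activity, i.e. NAD+ cleavage, using lysate of NRK1-HEK293T cells overexpressing the SAM-TIR fragment.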

The target in one assay is T1, SARM1 SAM-TIR (Homo sapiens, UniProt Q6SZW1).
T1 construct: a fragment of the SARM1 molecule encompassing the SAM and TIR domains; made in house; host or cells: NRK1-HEK293T cells, transiently transfected; the cleared, unpurified lysate was used as the enzyme
T1 sequence (Q6SZW1 409-724 limits assumed): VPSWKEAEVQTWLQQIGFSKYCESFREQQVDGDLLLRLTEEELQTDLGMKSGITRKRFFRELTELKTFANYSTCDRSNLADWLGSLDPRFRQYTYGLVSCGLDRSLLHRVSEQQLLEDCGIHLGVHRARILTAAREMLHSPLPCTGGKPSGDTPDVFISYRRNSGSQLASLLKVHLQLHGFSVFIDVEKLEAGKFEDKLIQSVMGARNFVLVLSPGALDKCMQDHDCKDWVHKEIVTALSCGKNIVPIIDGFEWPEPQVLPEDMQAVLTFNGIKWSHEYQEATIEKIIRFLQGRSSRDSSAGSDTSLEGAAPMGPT
Kind of assay: biochemical.
Conditions: not given
With `O=C(c1c(Nc2ccccc2C(F)(F)F)s[nH]c1=O)N1CCCC1` [Example 110], the concentration for half-maximal inhibition (IC50) lay within 1 to 5 µM.

`N#Cc1c(Nc2cccc(C3=CCNCC3)c2C(F)(F)F)s[nH]c1=O` [Example 131] had a half-inhibitory concentration (IC50) below 1 µM.

Still in this assay, the particulars now being: SAM-TIR lysate 5 μg/mL, 2 h pre-incubation, 5 μM NAD+, RapidFire MS of NAD+ and ADPR; read-out: SARM1 IC50.
Regarding `N#Cc1c(Nc2ccccc2C(F)(F)F)sn(Cc2n[nH]c3ccccc23)c1=O` [Example 92], the IC50 was below 1 µM.

Regarding `COc1cccc(C)c1Nc1sn(C)c(=O)c1C#N` [Example 93], the IC50 is below 1 µM.

Turning to `C[C@@H](c1ccccc1)n1sc(Nc2ccccc2C(F)(F)F)c(C#N)c1=O` [Example 94], the IC50 is below 1 µM.

Take `COCCn1sc(Nc2cccc3ncccc23)c(C#N)c1=O` [Example 95]: the IC50 was below 1 µM.

Take `COC(C)(C)Cn1sc(Nc2c(Cl)cccc2Cl)c(C#N)c1=O` [Example 96]: the IC50 was below 1 µM.

Take `COC(C)(C)Cn1sc(Nc2ccccc2C(F)(F)F)c(C#N)c1=O` [Example 97]: the IC50 is below 1 µM.

For `COCCn1sc(Nc2ccccc2C(C)(C)C)c(C#N)c1=O` [Example 98], the IC50 was below 1 µM.

As to `CN(C)CCn1sc(Nc2c(Cl)cccc2Cl)c(C#N)c1=O` [Example 99], the IC50 is below 1 µM.

Take `COc1cccc(Cl)c1Nc1s[nH]c(=O)c1C#N` [Example 100]: the IC50 is below 1 µM.

As for `CC(C)(O)Cn1sc(Nc2c(Cl)cccc2Cl)c(C#N)c1=O` [Example 101], the IC50 was below 1 µM.

Take `N#Cc1c(Nc2c(F)cccc2Cl)s[nH]c1=O` [Example 102]: the IC50 was below 1 µM.

As to `COc1cccc(C(F)(F)F)c1Nc1s[nH]c(=O)c1C#N` [Example 103], the IC50 is below 1 µM.

In the case of `N#Cc1c(Nc2c(Cl)ccc3ncccc23)s[nH]c1=O` [Example 104], the IC50 lay within 1 to 5 µM.

Take `N#Cc1c(Nc2ccccc2C(F)(F)F)sn(CCC(=O)O)c1=O` [Example 105]: the IC50 was below 1 µM.

`COc1ccc2nc(C)ccc2c1Nc1s[nH]c(=O)c1C#N` [Example 106]: the IC50 lay in the range of 1 to 5 µM.

With `CC(C)n1sc(Nc2ccccc2C(F)(F)F)c(C#N)c1=O` [Example 107], the IC50 was below 1 µM.

`N#Cc1c(Nc2cccc(C(N)=O)c2C(F)(F)F)s[nH]c1=O` [Example 108]: the IC50 was 1 to 5 µM.

`COc1cccc(C)c1Nc1s[nH]c(=O)c1C#N` [Example 109]: the IC50 was in the range of 1 to 5 µM.

Take `N#Cc1c(Nc2ccccc2C2CC2)s[nH]c1=O` [Example 111]: the concentration for half-maximal inhibition (IC50) was 1 to 5 µM.

Consider `CN(C(=O)c1c(Nc2ccccc2C(F)(F)F)s[nH]c1=O)C1CCCCC1` [Example 112], for which the concentration for half-maximal inhibition (IC50) is 1 to 5 µM.

For the compound `COc1cccc(OC)c1Nc1s[nH]c(=O)c1C#N` [Example 113], the IC50 is 1 to 5 µM.

As to `COCCN(C)C(=O)c1c(Nc2ccccc2C(F)(F)F)sn([C@@H](C)c2ccccc2)c1=O` [Example 114], the half-maximal inhibitory concentration (IC50) is above 5 µM.

For `CN(C)C(=O)c1c(Nc2ccccc2C(F)(F)F)s[nH]c1=O` [Example 115], the half-maximal inhibitory concentration (IC50) was in the range of 1 to 5 µM.

Take `COCCN(C)C(=O)c1c(Nc2ccccc2C(F)(F)F)s[nH]c1=O` [Example 116]: the IC50 is above 5 µM.

With `O=C(c1c(Nc2ccccc2C(F)(F)F)s[nH]c1=O)N1CCCCC1` [Example 117], the IC50 fell in the range of 1 to 5 µM.

Take `COCCn1sc(Nc2c(Cl)cccc2Cl)c(C(N)=O)c1=O` [Example 118]: the IC50 was above 5 µM.

As to `COCCN(C)C(=O)c1c(Nc2c(Cl)cccc2Cl)s[nH]c1=O` [Example 119], the IC50 was above 5 µM.

As for `N#Cc1c(Nc2cccc(C(=O)O)c2C(F)(F)F)s[nH]c1=O` [Example 120], the IC50 was above 5 µM.

For `COc1ccc(Cn2sc(N(CCF)c3ccccc3C(F)(F)F)c(C#N)c2=O)cc1` [Example 121], the IC50 is above 5 µM.

Regarding `N#Cc1c(Nc2cccc3ncccc23)sn(CCC(N)=O)c1=O` [Example 122], the IC50 is below 1 µM.

Consider `COC(=O)c1c(Nc2ccccc2C(F)(F)F)s[nH]c1=O` [Example 123], for which the half-maximal inhibitory concentration (IC50) was above 5 µM.

Regarding `COCCN(C)C(=N)c1c(Nc2cccc(Cl)c2Cl)sn(CCOC)c1=O` [Example 124], the IC50 is below 1 µM.

Regarding `CN(C)C(=N)c1c(Nc2ccccc2Cl)sn(C)c1=O` [Example 125], the IC50 was below 1 µM.

Turning to `Cn1sc(Nc2ccccc2Cl)c(C(=N)N2CCOCC2)c1=O` [Example 126], the IC50 was below 1 µM.

Take `COCCn1sc(Nc2cccc(Cl)c2Cl)c(C(=N)N2CCCCC2)c1=O` [Example 127]: the IC50 is below 1 µM.

For the compound `C[C@@H](c1ccccc1)n1sc(Nc2ccccc2C(F)(F)F)c(C(=N)N(C)C)c1=O` [Example 128], the half-inhibitory concentration (IC50) was below 1 µM.

`COCCn1sc(Nc2cccc(Cl)c2Cl)c(C(=N)N2CCOCC2)c1=O` [Example 130]: the IC50 is below 1 µM.

On to `Cn1sc(Nc2c(Cl)cccc2Cl)c(C(=N)N2CCOCC2)c1=O` [Example 132], for which the IC50 is below 1 µM.

Take `CN(C)C(=N)c1c(Nc2cccc(Cl)c2Cl)s[nH]c1=O` [Example 133]: the IC50 was below 1 µM.

Consider `C[C@@H](c1ccccc1)n1sc(Nc2c(Cl)cccc2Cl)c(C(=N)N(C)C)c1=O` [Example 134], for which the IC50 is 1 to 5 µM.

Consider `COCCn1sc(Nc2c(OC)cccc2C(F)(F)F)c(C(=N)N(C)C)c1=O` [Example 135], for which the IC50 is 1 to 5 µM.

As to `N=C(c1c(Nc2cccc(Cl)c2Cl)s[nH]c1=O)N1CCOCC1` [Example 136], the IC50 lay in the range of 1 to 5 µM.

As to `C[C@@H](c1ccccc1)n1sc(Nc2ccccc2C(F)(F)F)c(C(=N)N2CCOCC2)c1=O` [Example 137], the IC50 fell in the range of 1 to 5 µM.

In the case of `CN(C)C(=N)c1c(Nc2ccccc2C(F)(F)F)s[nH]c1=O` [Example 138], the IC50 lay in the range of 1 to 5 µM.

In the case of `COCCN(C)C(=N)c1c(Nc2cccc(Cl)c2Cl)s[nH]c1=O` [Example 139], the IC50 was in the range of 1 to 5 µM.

On to `Cn1sc(Nc2c(F)cccc2Cl)c(C(=O)N2CCOCC2)c1=O` [Example 140], for which the IC50 lay in the range of 1 to 5 µM.

With `COCCN(C)C(=N)c1c(Nc2ccccc2C(F)(F)F)s[nH]c1=O` [Example 141], the IC50 was 1 to 5 µM.

Turning to `Cn1sc(Nc2c(Cl)cccc2Cl)c(C(=O)N2CCOCC2)c1=O` [Example 143], the IC50 was 1 to 5 µM.

As to `N#Cc1c(Nc2ccc(N3CC[C@@H](N)C3)nc2)s[nH]c1=O` [Example 144], the 50% inhibitory concentration (IC50) lay in the range of 1 to 5 µM.

Turning to `CN(C)C(=N)c1c(Nc2c(Cl)ccc3ncccc23)s[nH]c1=O` [Example 145], the concentration for half-maximal inhibition (IC50) is 1 to 5 µM.

For the compound `CN(C)C(=N)c1c(Nc2ccccc2C2CC2)s[nH]c1=O` [Example 146], the IC50 lay in the range of 1 to 5 µM.

As for `C[C@@H](c1ccccc1)n1sc(Nc2ccccc2C(F)(F)F)c(C(=O)N2CCOCC2)c1=O` [Example 147], the IC50 is 1 to 5 µM.

Take `O=C(c1c(Nc2ccccc2C(F)(F)F)s[nH]c1=O)N1CCOCC1` [Example 148]: the IC50 lay within 1 to 5 µM.

For `O=C(c1c(Nc2c(F)cccc2Cl)s[nH]c1=O)N1CCOCC1` [Example 149], the IC50 lay within 1 to 5 µM.

As to `N#Cc1c(Nc2ccc(N3CC[C@@H](O)C3)nc2)s[nH]c1=O` [Example 150], the IC50 was 1 to 5 µM.

Regarding `N#Cc1c(Nc2ccc3c(c2)ncn3[C@H]2CCNC2)s[nH]c1=O` [Example 151], the IC50 was 1 to 5 µM.

As for `COCCn1sc(Nc2ccccc2C(F)(F)F)c(-c2ncon2)c1=O` [Example 152], the IC50 is above 5 µM.

On to `O=C(c1c(Nc2c(Cl)cccc2Cl)s[nH]c1=O)N1CCOCC1` [Example 153], for which the IC50 lay in the range of 1 to 5 µM.
